# ChEMBL document CHEMBL5725623, “4-azaindole derivatives” (2018)
# pEC50: −log10 of the molar value.
# Experiment: Positive allosteric modulator pEC50 values and antagonist pIC50 values for each compound were then determined. […] Data analysis was carried out using a 4 parameter logistic nonlinear regression model with the XLFIT (IDBS) excel add-in10. 1-10 Examples 76-80 and 82-89 were tested in a slightly modified procedure. The points of modification and the alternate reagents, concentrations or equipment employed in these examples were: 1200 μg/ml hygromycin B; 2G418 not added; 3CELLBANKER 1; 410E6; 5 40 μl; 6 1 in 99; 7 20 μl; 8FDSS6000 (Hamamatsu Photonics); 9(480Ex, 540Em); 10Spotfire (TIBCO).As measured by the above in vitro assay, compound Examples 1 to 105 are positive allosteric modulators of mAChR M1 displaying the pEC50 values for positive allosteric modulation given in Table 2.
# Conditions: 0.5 h
row,Compound,pEC50
1,COc1ccc(Cn2cc(C(=O)NC3CCOC[C@@H]3O)c3nccc(C)c32)cc1 (stereo partly specified),8.00
2,COc1ccc(Cn2cc(C(=O)NC3CCOC[C@@H]3O)c3nccc(C)c32)cc1F (stereo partly specified),7.90
3,COc1cc(Cn2cc(C(=O)NC3CCOC[C@@H]3O)c3nccc(C)c32)ccn1 (stereo partly specified),7.30
4,COc1ccc(Cn2cc(C(=O)NC3CCOC[C@@H]3O)c3nccc(Cl)c32)cc1 (stereo partly specified),7.90
5,O=C(NC1CCC(F)(F)C[C@H]1O)c1cn(Cc2ccc(F)cc2)c2cccnc12 (stereo partly specified),6.10
6,Cc1ccnc2c(C(=O)NC3CCOC[C@@H]3O)cn(Cc3ccc(F)cc3)c12 (stereo partly specified),7.80
